Literature values, collected in patent US9072749B2, “Treatment of age-related macular degeneration” (priority 2007, dated 2015).
Where two headings read alike, the source gives them in different places.

What was measured:
[1] = oral dosing in dogs
dogs = conditions: oral dosing in dogs
[2] = tested on: choroidal neovascularization; conditions: in vivo
D1/D5 receptor = conditions: anesthetized rabbits

Oc1ccc(C2CNCCc3c2cc(O)c(O)c3Cl)cc1 (stereo not shown) [Fenoldopam]
plasma fenoldopam (drug blood) level [1]: rapidly gives high drug blood level
duration of drug blood level and increase in renal blood flow (dogs; FIGS. 2a and 2b): relatively short duration

CC1=C(/C=C/C(C)=C/C=C/C(C)=C/C=C/C=C(C)/C=C/C=C(C)/C=C/C2=C(C)C(=O)C(O)CC2(C)C)C(C)(C)CC(O)C1=O (stereo not shown) [Astaxanthin]
choroidal neovascularization [2]: inhibit choroidal neovascularization

NCCc1ccc(O)c(O)c1 [dopamine]
choroidal vasodilation (D1/D5 receptor): caused choroidal vasodilation

CCNC(=O)Oc1ccc([C@H]2CNCCc3c2cc(OC(=O)NCC)c(OC(=O)NCC)c3Cl)cc1 [SKF 10508]
plasma fenoldopam (drug blood) level [1]: more gradual increase of drug blood level
plasma fenoldopam (drug blood) level ([1]; listed as SK&F 105058): release fenoldopam slowly after oral absorption
time for which the increase in renal blood flow is sustained (dogs; FIGS. 3A and 3B): greater than 6 hours
